Measurements: US7279302B2, “Methods for identifying herbicidal compounds” (Bayer CropScience S.A., priority 2000, dated 2007)

What was measured:
Format in all cases: biochemical
[1] = target: T1, TyrA-AT1 arogenate dehydrogenase (Arabidopsis thaliana, UniProt Q944B6); assay: arogenate dehydrogenase activity, spectrophotometric monitoring at 340 nm, recombinant TyrA-AT1; conditions: for Michaelis constant: Km for substrate/cofactor; for inhibition of arogenate dehydrogenase activity: 1 mM
T1 construct: recombinant proteins were observed only with the constructs encoding the proteins M58-TyrA-Atc and M58-TyrA-AT1; made in house; host or cells: Escherichia coli AT2471 (pET21a(+)), soluble crude extract
T1 sequence (Q944B6 with tags, fused parts or gaps): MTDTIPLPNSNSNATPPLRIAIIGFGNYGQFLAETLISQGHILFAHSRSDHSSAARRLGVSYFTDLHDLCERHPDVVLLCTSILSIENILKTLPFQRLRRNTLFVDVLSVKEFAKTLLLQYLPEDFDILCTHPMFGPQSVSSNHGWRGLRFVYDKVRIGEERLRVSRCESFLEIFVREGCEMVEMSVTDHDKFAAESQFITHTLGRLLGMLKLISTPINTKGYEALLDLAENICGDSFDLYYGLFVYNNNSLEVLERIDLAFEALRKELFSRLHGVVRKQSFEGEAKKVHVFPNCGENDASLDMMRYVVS
Description: (§1) The arogenate dehydrogenase activity is measured at 25° C. by spectrophotometric monitoring, at 340 nm, of the formation of NADH or NADPH in a solution containing 50 mM of Tris-HCl, pH 8.6, 300 μm of arogenate and 1 mM of NAD or […] in a total volume of 200 μl.
(§2) Eshcerichia coli AT2471 cells were transformed with each one of the plasmids pET21-TyrA-AT obtained in example 3, and then cultured at 37° C. in 2 liters of Luria-Bertani medium supplemented with 100 μg/ml of carbenicillin. When the culture had reached the equivalent of an absorbance at 600 nm (A600) of 0.6, 1 mM of isopropyl-β-D-thiogalactoside was added to the culture medium in order to induce recombinant protein synthesis. The cells were then cultured for 16 h at 28° C., harvested, and then centrifuged for 20 min at 40 000 g. The pellet was then resuspended in a 50 mM Tris-HC1 buffer, pH 7.5, containing 1 mM EDTA, 1 mM dithiothreitol, 1 mM benzamidine HCl and 5 mM aminocaproic acid, and then sonicated (100 pulses every 3 seconds at power 5) with a Vibra-Cell disrupter (Sonics and Materials, Danbury, Conn., USA). The crude extracts thus obtained were then centrifuged for 20 min at 40 000 g, and the supernatants were used directly for the enzyme assays.
(§3) The biochemical characterization of the recombinant arogenate dehydrogenase enzymes was carried out using the soluble protein extracts of the transformed E. coli strains. The arogenate dehydrogenase activity was measured according to the method described in example 4. […] No arogenate dehydrogenase activity was detected in the presence of NAD, and no prephenate dehydrogenase activity was detected whatever the cofactor used (NADP or NAD) and whatever the protein tested (TyrA-ATc, TyrA-AT1 or TyrA-AT2). […] Each one of these enzymes has a Michaelis-Menten-type behavior, and their Km value for arogenate and NADP is relatively the same (FIGS. 2 and 3). The Michaelis constants for NADP are, respectively, 40 μM for TyrA-Atc, 60 μM for TyrA-AT1, and 20 μM for TyrA-AT2. The Michaelis constants for arogenate are, respectively, 70 μM for TyrA-Atc, 45 μM for TyrA-AT1, and 45 μM for TyrA-AT2. In addition, like the other plant arogenate dehydrogenases (Byng et al., 1981, Phytochemistry 6, 1289-1292; Connelly and Conn, 1986, Z. Naturforsch 41c, 69-78; Gaines et al., 1982 Planta 156, 233-240), the Arabidopsis arogenate dehydrogenases are all very sensitive to tyrosine, the product of the enzyme reaction, and insensitive to 1 mM of phenylalanine and 1 mM of p-hydroxyphenylpyruvate.

[2] = test system: Synechocystis arogenate dehydrogenase; assay: arogenate dehydrogenase activity, spectrophotometric monitoring at 340 nm, recombinant Synechocystis enzyme; conditions: for Michaelis constant: Km for substrate/cofactor
Description: as §1, §2
The sequence of the gene encoding the A. thaliana arogenate dehyrogenase identified in example 1 (TyrA) made it possible to identify an arogenate dehydrogenase gene in the bacterium Synechocystis (accession number: 1652956). This gene was originally described as encoding a “prephenate dehydrogenase” enzyme. It was isolated from a Synechocystis genomic library and the enzyme was produced in the same way as the A. thaliana enzyme, according to the protocol described in example 5 . […] The arogenate dehydrogenase activity was measured according to the method described in example 4 . […] No arogenate dehydrogenase activity was detected in the presence of NAD, and no prephenate dehydrogenase activity was detected whatever the cofactor used (NADP or NAD). […]

[3] = target: T2, TyrA-AT2 arogenate dehydrogenase (Arabidopsis thaliana, UniProt Q944B6); assay: arogenate dehydrogenase activity, spectrophotometric monitoring at 340 nm, recombinant TyrA-AT2; conditions: for Michaelis constant: Km for substrate/cofactor; for inhibition of arogenate dehydrogenase activity: 1 mM
T2 construct: at the ATG codon of the second open reading frame (at position 1081 from the first ATG codon); made in house; host or cells: Escherichia coli AT2471 (pET21a(+)), soluble crude extract
T2 sequence (Q944B6 339-640): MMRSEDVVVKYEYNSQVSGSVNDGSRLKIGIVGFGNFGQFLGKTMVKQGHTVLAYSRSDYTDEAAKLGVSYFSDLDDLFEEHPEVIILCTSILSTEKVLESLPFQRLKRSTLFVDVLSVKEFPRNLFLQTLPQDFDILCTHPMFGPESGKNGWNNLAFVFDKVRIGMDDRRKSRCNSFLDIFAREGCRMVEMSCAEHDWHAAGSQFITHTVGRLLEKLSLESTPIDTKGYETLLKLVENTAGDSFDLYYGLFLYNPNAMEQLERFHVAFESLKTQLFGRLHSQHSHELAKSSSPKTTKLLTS
Description: as §1, §2, §3

[4] = target: T3, TyrA-ATc arogenate dehydrogenase (Arabidopsis thaliana, UniProt Q944B6, V36M); assay: arogenate dehydrogenase activity, spectrophotometric monitoring at 340 nm, recombinant TyrA-ATc; conditions: for Michaelis constant: TyrA-Atc, Km for substrate/cofactor; for inhibition of arogenate dehydrogenase activity: TyrA-ATc, 1 mM
T3 construct: introduces an ATG initiating codon and an Nde I restriction site (underlined) at position 174 from the first ATG codon (V58M); made in house; host or cells: Escherichia coli AT2471 (pET21a(+)), soluble crude extract
T3 sequence (Q944B6 36-640 V36M): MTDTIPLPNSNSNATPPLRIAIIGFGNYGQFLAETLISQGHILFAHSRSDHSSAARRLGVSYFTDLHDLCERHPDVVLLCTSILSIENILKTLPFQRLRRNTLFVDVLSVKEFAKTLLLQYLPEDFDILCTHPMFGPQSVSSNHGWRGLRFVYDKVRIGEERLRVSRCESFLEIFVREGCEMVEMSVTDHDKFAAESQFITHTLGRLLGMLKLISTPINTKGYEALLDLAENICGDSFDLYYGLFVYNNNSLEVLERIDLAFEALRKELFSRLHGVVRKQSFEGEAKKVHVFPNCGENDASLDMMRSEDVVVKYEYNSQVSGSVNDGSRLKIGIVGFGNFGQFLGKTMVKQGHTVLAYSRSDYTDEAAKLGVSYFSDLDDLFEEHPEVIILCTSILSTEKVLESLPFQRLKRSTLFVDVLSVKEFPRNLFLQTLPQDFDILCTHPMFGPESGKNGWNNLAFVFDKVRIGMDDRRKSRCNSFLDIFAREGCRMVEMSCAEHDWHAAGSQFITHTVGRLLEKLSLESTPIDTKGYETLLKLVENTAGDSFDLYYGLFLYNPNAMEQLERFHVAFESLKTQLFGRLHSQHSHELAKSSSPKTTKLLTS
Description: as §1, §2, §3

[5] = target: T4, TyrA-ATc arogenate dehydrogenase (Arabidopsis thaliana, UniProt Q944B6); assay: as above; conditions: TyrA-Atc; inhibition competitive with respect to arogenate
T4 construct: introduces an ATG initiating codon and an Nde I restriction site (underlined) at position 174 from the first ATG codon (V58M); made in house; host or cells: Escherichia coli AT2471 (pET21a(+)), soluble crude extract
T4 sequence (Q944B6 36-640 V36M): as above
Description: as §1, §2, §3

[6] = inhibition competitive with respect to arogenate

Compound	Michaelis constant [1]	Michaelis constant [2]	Michaelis constant [3]	Michaelis constant [4]	inhibition of arogenate dehydrogenase activity [1]	inhibition of arogenate dehydrogenase activity [3]	inhibition of arogenate dehydrogenase activity [4]	also measured
NC(=O)c1ccc[n+]([C@@H]2O[C@H](COP(=O)([O-])OP(=O)(O)OC[C@H]3O[C@@H](n4cnc5c(N)ncnc54)[C@H](OP(=O)(O)O)[C@@H]3O)[C@@H](O)[C@H]2O)c1 [NADP]	60 µM	6 µM	20 µM	40 µM				
N[C@@H](CC1(C(=O)O)C=CC(O)C=C1)C(=O)O (stereo partly drawn) [arogenate]	45 µM	107 µM	45 µM	70 µM				
N[C@@H](Cc1ccccc1)C(=O)O [phenylalanine]					insensitive	insensitive	insensitive	
O=C(O)C(=O)Cc1ccc(O)cc1 [p-hydroxyphenylpyruvate]					insensitive	insensitive	insensitive	
N[C@@H](Cc1ccc(O)cc1)C(=O)O [tyrosine]								Ki [1, 6]: 8 µM; Ki [3, 6]: 12 µM; Ki [5]: 14 µM
O=C(O)C(=O)CC1(C(=O)O)C=CC(O)C=C1 (stereo not drawn) [prephenate]					does not inhibit	does not inhibit	does not inhibit	inhibition of arogenate dehydrogenase activity ([2]; 1 mM): does not inhibit
